According to US20040067927A1, “Substituted alkyldiamines” (priority 2003, published 2004):
Square brackets hold non-standard residues; d marks the D form. Peptide text beside a SMILES is read from it. * marks the point of attachment. Sta = CC(C)C[C@H](N)[C@@H](O)CC(=O)O; Isovaleryl = CC(C)CC(=O)*

Tests used:
plasmepsin II = plasmepsin II (Plasmodium falciparum, UniProt P46925); test: FRET assay for plasmepsin II; type: biochemical; conditions: pH 5, 37° C., 40 min, substrate 1 μM
Experimental: The fluorescence resonance energy transfer (FRET) assay for HIV, plasmepsin II, human cathepsin D and human cathepsin E.
The assay conditions were selected according, to reports in the literature. The FRET assay was performed in white polysorp plates (Fluoronunc, cat n° 437842 A). The assay buffer consisted of 50 mM Na acetate pH 5, 12,5% glycerol, 0.1% BSA+392 mM NaCl (for HIV-protease). The incubates per well were composed of:
10 μl inhibitor (in DMSO)
10 μl of the corresponding substrate in DMSO (see table A) to a final concentration of 1 μM
20 μl of enzyme to a final amount of x ng per assay tube (x=10 ng/assay tube plasmepsin II, x=100 ng/assay tube HIV-protease, x=10 ng/assay tube human cathepsin E and x=20 ng/assay tube human cathepsin D)
The reactions were initiated by addition of the enzyme. The assay was incubated at 37° C. for 30 min (for human cathepsin E), 40 min (for plasmepsin II and HIV-protease) or 120 min (for human cathepsin D). The reactions were stopped by adding 10% (v/v) of a 1 M solution of Tris-base. Product-accumulation was monitored by measuring the fluorescence at 460 nm.
Auto-fluorescence of all the test substances is determined in assay buffer in the absence of substrate and enzyme and this value was subtracted from the final signal.

P. falciparum = conditions: cited from earlier work

Chain of plasmepsin II (P46925 125-453): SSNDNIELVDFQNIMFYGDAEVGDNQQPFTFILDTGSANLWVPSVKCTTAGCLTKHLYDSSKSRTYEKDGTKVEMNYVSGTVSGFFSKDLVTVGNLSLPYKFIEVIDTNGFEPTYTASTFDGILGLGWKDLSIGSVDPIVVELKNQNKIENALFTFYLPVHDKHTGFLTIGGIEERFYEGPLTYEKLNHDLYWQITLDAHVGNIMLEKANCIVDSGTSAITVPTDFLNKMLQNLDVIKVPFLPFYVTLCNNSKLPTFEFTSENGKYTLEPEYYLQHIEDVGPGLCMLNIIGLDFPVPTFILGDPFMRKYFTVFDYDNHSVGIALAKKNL

SMILES	IC50 (plasmepsin II) [nM]	growth of P. falciparum in red blood cells in vitro (P. falciparum)
CCCCCc1ccc(CN(CCN(CCCC)CCCC)Cc2ccc(OCc3ccccc3)cc2)cc1 [Example 20]	846	–
CCCCCc1ccc(C(=O)N(CCN(CCCC)CCCC)Cc2ccc(Oc3ccccc3)cc2)cc1 [Example 21]	469	–
CCCCCc1ccc(C(=O)N(CCN(CCCC)CCCC)Cc2ccc(OCc3ccccc3)c(OCc3ccccc3)c2)cc1 [Example 22]	858	–
CCCCCc1ccc(C(=O)N(CCN(CCCC)CCCC)Cc2ccc(C(F)(F)F)cc2)cc1 [Example 25]	596	–
CCCCCc1ccc(C(=O)N(CCCN(CCCC)CCCC)Cc2ccc(OCc3ccccc3)cc2)cc1 [Example 51]	691	–
CCCCCc1ccc(C(=O)N(CCCN(CCCC)CCCC)Cc2ccc(-c3ccccc3)cc2)cc1 [Example 52]	834	–
CCCCCc1ccc(C(=O)N(CCN(CCCC)CCCC)Cc2ccc(-c3ccc(OCCO)cc3)cc2)cc1 [Example 53]	125	–
CCCCCc1ccc(C(=O)N(CCN(CCCC)CCCC)Cc2ccc(-c3ccccc3Cl)cc2)cc1 [Example 56]	659	–
CCCCCc1ccc(C(=O)N(CCN(CCCC)CCCC)Cc2ccc(-c3cncnc3)cc2)cc1 [Example 57]	351	–
CCCCCc1ccc(C(=O)N(CCN(CCCC)CCCC)Cc2ccc(-c3cccc(OC(F)(F)F)c3)cc2)cc1 [Example 58]	754	–
CCCCCc1ccc(C(=O)N(CCN(CCCC)CCCC)Cc2ccc(-c3ccccn3)cc2)cc1 [Example 59]	380	–
CCCCCc1ccc(CN(CCN(CCCC)CCCC)Cc2ccc(-c3ccc(C#N)cc3)cc2)cc1 [Example 68]	714	–
CCCCCc1ccc(C(=O)N(CCN(CCO)CCO)Cc2ccc(OCC)cc2)cc1 [Example 69]	8230	–
CC(C)CC(=O)N[C@H](C(=O)N[C@H](C(=O)N[C@@H](CC(C)C)[C@@H](O)CC(=O)N[C@@H](C)C(=O)N[C@@H](CC(C)C)[C@@H](O)CC(=O)O)C(C)C)C(C)C [Pepstatin] (Isovaleryl-VV[Sta]A[Sta]-OH)	–	inhibits the growth

Continued by falling IC50 (plasmepsin II), values first:

IC50 (plasmepsin II) [nM]	SMILES	growth of P. falciparum in red blood cells in vitro (P. falciparum)
325	CCCCCc1ccc(C(=O)N(CCN(CCCC)CCCC)Cc2ccc(OCCCC)cc2)cc1 [Example 38]	–
312	CCCCCc1ccc(C(=O)N(CCN(CCCC)CCCC)Cc2ccc(-c3ccccc3F)cc2)cc1 [Example 54]	–
252	CCCCCc1ccc(C(=O)N(CCN(CCCC)CCCC)Cc2ccc(-c3ccccc3)cc2)cc1 [Example 23]	–
198	CCCCCc1ccc(C(=O)N(CCN(CCCC)CCCC)Cc2ccc(-c3ccc(CC(=O)OC)cc3)cc2)cc1 [Example 60]	–
115	CCCCCc1ccc(C(=O)N(CCN(CCCC)CCCC)Cc2ccc(OCc3ccccc3)cc2)cc1 [Example 1]	–
57	CCCCCc1ccc(C(=O)N(CCN(CCCC)CCCC)Cc2ccc(-c3ccc4c(c3)OCO4)cc2)cc1 [Example 61]	–
